Experiments:
[1] = test system: Pseudomonas syringae; assay: Field trials in vivo against Pseudomonas syringae on coffee tree, foliar spray
Experimental: EXAMPLE 1: TEST IN VIVO AGAINST PSEUDOMONAS SYRINGAE (COFFEE)
Two field trials were conducted to find out the efficacy of N-(5-chloro-2-isopropylbenzyl)-N-cyclopropyl-3-(difluoromethyl)-5-fluoro-1-methyl-1H-pyrazole-4-carboxamide (compound A5) against bacteria (Pseudomonas syringae) when sprayed on leaves of coffee tree.
The field trials were randomized, had 3 replicates and plot size was 20 m. The product was applied as an EC 100—formulation in a spray sequence consisting of three foliar applications, beginning in the growth stage EC59. The sprays were done with an interval of approximately 4 weeks (between treatments). About 3 and 11 weeks after the third application the efficacy of the compound against the bacterial pathogen Pseudomonas syringae was visually assessed as incidence of infested leaf rosettes or branches per plot (in %). Then the incidence values were converted into control (% Abbott).

[2] = test system: Xanthomonas spp.; assay: Field trial in vivo against bacterial leaf streak on spring wheat, foliar spray; set-up: species or system Xanthomonas translucens
Experimental: EXAMPLE 2: TEST IN VIVO AGAINST XANTHOMONAS TRANSLUCENS (WHEAT)
Field trials were conducted to test the efficacy of N-(5-chloro-2-isopropylbenzyl)-N-cyclopropyl-3-(difluoromethyl)-5-fluoro-1-methyl-1H-pyrazole-4-carboxamide (compound A5) in combination with the commercial standard Prosaro (a 1:1 combination of Prothioconazole and Tebuconazole) against bacterial leaf streak caused by Xanthomonas spp. when sprayed on leaves. A control without compound A5 was tested in same conditions.
The field trials were randomized, had 4 replicates and plot size was 15.24 m^2. Fertilization, herbicide- and insecticide applications were carried out according to the local agricultural practice.
N-(5-chloro-2-isopropylbenzyl)-N-cyclopropyl-3-(difluoromethyl)-5-fluoro-1-methyl-1H-pyrazole-4-carboxamide was applied as SC 280 formulation in 3 rates in combination with the commercial standard Prosaro. Test was conducted in a Spring wheat which was treated in growth stage EC 61 with one foliar application.
22 days after application the efficacy of the tested products against the bacterial leaf streak caused by Xanthomonas spp. was visually assessed. The effect was evaluated as preservation of remaining green leaves (GRNLVS) in a scale from 1-6 (meaning 1 best and 6 worst green leaf preservation)

[3] = log P by HPLC on reversed-phase column (EEC Directive 79/831 Annex V.A8); assay type: physicochemical; conditions: HPLC C18, 40° C., 0.1% aqueous formic acid and acetonitrile
Experimental: Table 1 provides the log P and NMR data (^1H) of compounds A1 to A20.
In table 1, the log P values were determined in accordance with EEC Directive 79/831 Annex V.A8 by HPLC (High Performance Liquid Chromatography) on a reversed-phase column (C 18), using the method described below:
Temperature: 40° C.; Mobile phases: 0.1% aqueous formic acid and acetonitrile; linear gradient from 10% acetonitrile to 90% acetonitrile.
Calibration was carried out using unbranched alkan-2-ones (comprising 3 to 16 carbon atoms) with known log P values (determination of the log P values by the retention times using linear interpolation between two successive alkanones). lambda-max-values were determined using UV-spectra from 200 nm to 400 nm and the peak values of the chromatographic signals.

With `CC(C)c1ccc(Cl)cc1CN(C(=O)c1c(C(F)F)nn(C)c1F)C1CC1` [Compound A5, N-(5-chloro-2-isopropylbenzyl)-N-cyclopropyl-3-(difluoromethyl)-5-fluoro-1-methyl-1H-pyrazole-4-carboxamide] the “effect on bacterial disease caused by Pseudomonas syringae in coffee (conclusion in words)” value ([1]; based on the two field trials) was “suppresses the bacterial disease”, the “ABBOTT (%) leaf rosette 21 DA3” value ([1]; coffee, first trial (Table 1), 75 g a.i./ha, 21 days after third application) was 39.2% and the “ABBOTT (%) branch 74 DA3” value ([1]; coffee, first trial (Table 1), 75 g a.i./ha, 74 days after third application) was 45%. For the same compound, the “LEAF ROSETTE INCIDENCE (%) 21 DA3” value ([1]; coffee, first trial (Table 1), 75 g a.i./ha, EC 100, three foliar applications, 21 days after third application, untreated 12.2) was 7.4%, the “ABBOTT (%) leaf rosette 20 DA3” value ([1]; coffee, second trial (Table 2), 75 g a.i./ha, 20 days after third application) was 65.2% and the “LEAF ROSETTE INCIDENCE (%) 20 DA3” value ([1]; coffee, second trial (Table 2), 75 g a.i./ha, 20 days after third application, untreated 3.5) was 1.2%. For the same compound, the “suppressing bacterial leaf streak caused by Xanthomonas spp. (conclusion in words)” value [2] was “proves the efficiency”.
With “N-cyclopropyl-3-(difluoromethyl)-5-fluoro-N-(2-isopropylbenzyl)-1-methyl-1H-pyrazole-4-carbothio-amide [Compound A20]” the logP [3] was 4.36.
